# Laboratory results from the supplement of paper PMC10307832.
# Columns and labels:
# Assay in all cases: relative viability (nuclei count vs DMSO), 5 days (fraction); higher = more cells survive
# [1] = compound: O=S(=O)(c1ccccc1)N(CC(F)(F)F)c1ccc(C(O)(C(F)(F)F)C(F)(F)F)cc1 + NC(=O)Nc1cc(-c2cccc(F)c2)sc1C(=O)N[C@H]1CCCNC1 [AZD7762] (partner 0.2 µM)
# Summary of the method: (§1)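 For relative viability, nuclei counts in treated wells were divided by those in vehicle wells. Lung cancer cell lines had been pin-tool dosed in 1536-well plates the day after seeding and cultured for 5 days, then fixed and stained in one step (final 0.05% Triton X-100, 1% formaldehyde, 1 ug/ml Hoechst) and imaged at 4×. Doses were one drug alone or a fixed anchor-drug dose plus five library-drug doses (not always all listed) in √10 steps, and values are duplicate-plate medians.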
# [2] = compound: O=S(=O)(c1ccccc1)N(CC(F)(F)F)c1ccc(C(O)(C(F)(F)F)C(F)(F)F)cc1 + Nc1nc2[nH]cc(CCc3ccc(C(=O)N[C@@H](CCC(=O)O)C(=O)O)cc3)c2c(=O)[nH]1 [Pemetrexed] (partner 0.2 µM)
# Summary of the method: as §1
# [3] = compound: O=S(=O)(c1ccccc1)N(CC(F)(F)F)c1ccc(C(O)(C(F)(F)F)C(F)(F)F)cc1 + O=C(CCCCCCC(=O)Nc1ccccc1)NO [Vorinostat] (partner 1 µM)
# Summary of the method: as §1
# [4] = compound: O=S(=O)(c1ccccc1)N(CC(F)(F)F)c1ccc(C(O)(C(F)(F)F)C(F)(F)F)cc1 + COc1cc2c(Oc3ccc(NC(=O)C4(C(=O)Nc5ccc(F)cc5)CC4)cc3F)ccnc2cc1OCCCN1CCOCC1 [Foretinib] (partner 0.25 µM)
# Summary of the method: as §1
# RO-3306 + Alpelisib = compound: C1=CC2=C(C=CC(=C2)C=C3C(=O)NC(=NCC4=CC=CS4)S3)N=C1 [RO-3306] + Cc1nc(NC(=O)N2CCC[C@H]2C(N)=O)sc1-c1ccnc(C(C)(C)C(F)(F)F)c1 [Alpelisib] (partner 2 µM)
# Summary of the method: as §1
Cell Line,relative viability ([1]; first compound 0.8 µM),relative viability ([1]; first compound 2.53 µM),relative viability ([1]; first compound 8 µM),relative viability ([2]; first compound 0.8 µM),relative viability ([2]; first compound 2.53 µM),relative viability ([2]; first compound 8 µM),relative viability ([3]; first compound 0.8 µM),relative viability ([3]; first compound 2.53 µM),relative viability ([3]; first compound 8 µM),relative viability ([4]; first compound 0.8 µM),relative viability ([4]; first compound 2.53 µM),relative viability ([4]; first compound 8 µM),relative viability (RO-3306 + Alpelisib; first compound 0.01 µM),relative viability (RO-3306 + Alpelisib; first compound 0.03162 µM),relative viability (RO-3306 + Alpelisib; first compound 0.1 µM),relative viability (RO-3306 + Alpelisib; first compound 0.3162 µM),relative viability (RO-3306 + Alpelisib; first compound 1 µM)
NCI-H1648,0.694,0.505,0.707,0.718,0.574,0.535,0.41,0.387,0.312,,,,,,,,
NCI-H1650,,,,0.332,0.355,0.397,0.511,0.496,0.58,1.33,0.904,1.28,,,,,
NCI-H1703,0.132,0.119,0.132,,,,,,,0.339,0.23,0.29,0.467,0.324,0.342,0.262,0.307
NCI-H1792,0.841,0.616,0.441,0.892,0.702,0.717,,,,,,,0.803,,0.668,0.757,0.457
NCI-H2009,,,,1.01,0.941,0.824,0.707,0.614,0.648,1.26,1.08,0.988,1.18,1.18,1.21,1.12,1.27
NCI-H2023,,,,0.274,0.268,0.231,0.567,0.422,0.512,0.957,0.73,0.66,0.758,0.448,0.558,0.661,0.564
NCI-H2228,,,,0.373,0.309,0.333,0.62,0.427,0.644,0.65,0.657,0.839,0.623,0.777,0.865,0.673,0.609
NCI-H2342,0.527,0.559,0.477,0.894,0.841,0.956,0.8,0.841,0.741,1.15,1.03,0.951,,,,,
SK-LU-1,,,,1.05,0.976,1.01,0.797,0.705,0.727,0.716,0.857,0.695,1.03,1.07,0.951,1.02,0.973
SK-MES-1,,,,1.12,1,0.824,1.09,1.18,0.915,0.723,0.728,0.767,0.9,0.553,0.831,0.983,0.922
SW 900,0.609,0.53,0.709,0.581,0.478,0.538,0.498,0.498,0.699,0.752,0.784,0.82,,,,,
SW 1573,,,,0.904,0.76,0.877,0.634,0.722,0.725,0.954,0.898,1.04,0.701,,0.848,0.832,0.905
